Source: US20250361230A1, “LATS Inhibitors and Uses Thereof” (The USA, as Represented by the Secretary, Dept. of Heath …, priority 2022, published 2025)

Legend:
Type in all cases: biochemical
[1] = molecular target: T1, LATS1 (Homo sapiens, UniProt O95835); test: RBC HotSpot kinase assay (33P-ATP, P81 filter-binding), LATS1; details: Table 28, biochemical kinase assay; read-out: LATS1 IC50
T1 sequence (O95835 1-1130): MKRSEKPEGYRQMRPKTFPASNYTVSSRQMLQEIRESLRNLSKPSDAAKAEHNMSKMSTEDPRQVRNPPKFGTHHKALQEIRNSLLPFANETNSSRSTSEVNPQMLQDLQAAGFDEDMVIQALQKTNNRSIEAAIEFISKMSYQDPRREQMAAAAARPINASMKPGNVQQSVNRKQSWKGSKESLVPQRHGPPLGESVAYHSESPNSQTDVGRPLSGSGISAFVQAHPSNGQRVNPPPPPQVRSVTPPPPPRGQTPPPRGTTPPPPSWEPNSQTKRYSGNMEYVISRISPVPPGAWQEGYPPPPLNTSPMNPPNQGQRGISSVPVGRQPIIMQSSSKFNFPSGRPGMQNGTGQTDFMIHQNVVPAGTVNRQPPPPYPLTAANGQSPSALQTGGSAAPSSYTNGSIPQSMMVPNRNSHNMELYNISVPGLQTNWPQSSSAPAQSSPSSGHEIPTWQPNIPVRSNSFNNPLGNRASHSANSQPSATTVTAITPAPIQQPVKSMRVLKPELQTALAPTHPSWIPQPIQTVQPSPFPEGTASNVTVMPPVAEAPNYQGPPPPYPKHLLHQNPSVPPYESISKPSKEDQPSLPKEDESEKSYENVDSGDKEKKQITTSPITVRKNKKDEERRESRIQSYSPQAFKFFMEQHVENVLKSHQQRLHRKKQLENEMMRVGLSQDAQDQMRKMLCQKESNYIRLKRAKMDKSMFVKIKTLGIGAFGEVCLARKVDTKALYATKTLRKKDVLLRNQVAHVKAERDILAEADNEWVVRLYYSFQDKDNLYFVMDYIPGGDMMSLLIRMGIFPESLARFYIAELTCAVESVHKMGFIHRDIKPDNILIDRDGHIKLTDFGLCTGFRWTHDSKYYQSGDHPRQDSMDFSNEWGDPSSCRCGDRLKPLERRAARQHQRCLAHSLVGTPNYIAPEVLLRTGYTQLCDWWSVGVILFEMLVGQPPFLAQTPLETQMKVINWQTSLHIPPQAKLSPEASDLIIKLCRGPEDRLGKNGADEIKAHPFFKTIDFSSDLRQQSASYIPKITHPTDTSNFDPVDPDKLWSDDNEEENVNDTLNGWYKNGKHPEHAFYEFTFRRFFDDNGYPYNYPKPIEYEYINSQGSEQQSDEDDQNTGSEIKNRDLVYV
Summary of the method: (§1)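 Radiometric 33P-ATP kinase reaction in 20 mM Hepes pH 7.5, 10 mM MgCl2, 1 mM EGTA, 0.01% Brij35, 0.02 mg/ml BSA, 0.1 mM Na3VO4, 2 mM DTT, 1% DMSO. Compound preincubated with kinase and substrate 20 min, then 2 h at room temperature; P81 filter-binding read-out. IC50 (nM) from 10-point singlet curves.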

[2] = molecular target: T2, LATS2 (Homo sapiens, UniProt Q9NRM7); test: RBC HotSpot kinase assay (33P-ATP, P81 filter-binding), LATS2; details: Table 28, biochemical kinase assay; read-out: LATS2 IC50
T2 sequence (Q9NRM7 1-1088): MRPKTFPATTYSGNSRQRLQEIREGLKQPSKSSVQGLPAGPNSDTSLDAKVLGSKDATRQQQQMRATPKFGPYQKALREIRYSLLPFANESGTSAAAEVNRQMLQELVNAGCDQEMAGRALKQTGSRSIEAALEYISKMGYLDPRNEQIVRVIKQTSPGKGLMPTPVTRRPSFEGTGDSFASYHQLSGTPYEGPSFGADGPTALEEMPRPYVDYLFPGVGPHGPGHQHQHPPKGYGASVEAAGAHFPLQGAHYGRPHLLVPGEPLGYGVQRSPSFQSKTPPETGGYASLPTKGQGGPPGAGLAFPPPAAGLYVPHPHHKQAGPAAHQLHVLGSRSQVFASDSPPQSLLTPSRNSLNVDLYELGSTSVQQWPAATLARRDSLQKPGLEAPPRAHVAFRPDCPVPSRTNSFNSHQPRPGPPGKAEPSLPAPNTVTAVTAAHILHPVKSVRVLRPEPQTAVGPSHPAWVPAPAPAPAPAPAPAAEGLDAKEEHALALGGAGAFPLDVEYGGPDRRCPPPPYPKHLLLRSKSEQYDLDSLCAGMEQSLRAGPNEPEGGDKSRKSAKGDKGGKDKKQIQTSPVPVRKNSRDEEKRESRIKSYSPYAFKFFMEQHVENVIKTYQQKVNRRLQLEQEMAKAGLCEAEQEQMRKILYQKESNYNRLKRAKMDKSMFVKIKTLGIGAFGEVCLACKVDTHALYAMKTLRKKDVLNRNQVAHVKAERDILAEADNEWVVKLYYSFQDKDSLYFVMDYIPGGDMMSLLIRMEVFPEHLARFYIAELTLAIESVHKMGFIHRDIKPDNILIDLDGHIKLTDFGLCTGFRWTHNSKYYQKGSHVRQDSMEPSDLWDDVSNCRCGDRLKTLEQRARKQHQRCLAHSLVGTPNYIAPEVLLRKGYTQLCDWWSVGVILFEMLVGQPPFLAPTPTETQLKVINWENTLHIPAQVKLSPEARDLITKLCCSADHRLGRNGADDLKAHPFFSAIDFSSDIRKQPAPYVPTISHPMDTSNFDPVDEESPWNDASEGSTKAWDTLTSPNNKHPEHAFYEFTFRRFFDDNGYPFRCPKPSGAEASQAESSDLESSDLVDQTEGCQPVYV
Summary of the method: as §1

[3] = molecular target: AKT (Homo sapiens, UniProt P31749); test: RBC HotSpot kinase assay (33P-ATP, P81 filter-binding), AKT; details: Table 28, biochemical kinase assay; read-out: AKT IC50
Summary of the method: as §1

Sequence of AKT (P31749 whole entry): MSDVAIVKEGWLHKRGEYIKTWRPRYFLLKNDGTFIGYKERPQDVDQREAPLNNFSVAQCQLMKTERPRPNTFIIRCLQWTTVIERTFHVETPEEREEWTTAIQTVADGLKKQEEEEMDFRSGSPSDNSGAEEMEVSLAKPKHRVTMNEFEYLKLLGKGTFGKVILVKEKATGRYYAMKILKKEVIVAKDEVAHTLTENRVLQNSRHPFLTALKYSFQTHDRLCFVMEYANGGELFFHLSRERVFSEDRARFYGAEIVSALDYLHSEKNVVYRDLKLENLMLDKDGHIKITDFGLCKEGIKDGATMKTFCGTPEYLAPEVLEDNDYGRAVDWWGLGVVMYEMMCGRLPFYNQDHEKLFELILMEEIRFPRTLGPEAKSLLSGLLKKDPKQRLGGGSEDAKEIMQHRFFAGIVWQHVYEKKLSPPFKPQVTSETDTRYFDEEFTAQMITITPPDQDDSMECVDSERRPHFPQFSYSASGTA

Compound	IC50 [1] [nM]	IC50 [2] [nM]	IC50 [3] [nM]
CN1CC2CC(C1)C2(O)c1ccc(-c2ccnc3[nH]cc(F)c23)cc1Cl (stereo not drawn) [Compound 134, 6-(2-chloro-4-(3-fluoro-1H-pyrrolo[2,3-b]pyridin-4-yl)phenyl)-3-methyl-3-azabicyclo[3.1.1]heptan-6-ol]	43.5	116	788
Cc1nc(-c2ccnc3[nH]ccc23)ccc1C1(O)CCN(C)CC1 [Compound 135, 1-methyl-4-(2-methyl-6-(1H-pyrrolo[2,3-b]pyridin-4-yl)pyridin-3-yl)piperidin-4-ol]	736	682	7960
CN1C[C@H]2CC[C@@H](C1)C2(O)c1ccc(-c2ccnc3[nH]cc(F)c23)cc1Cl (stereo partly drawn) [Compound 136, (1R,5S,8s)-8-(2-chloro-4-(3-fluoro-1H-pyrrolo[2,3-b]pyridin-4-yl)phenyl)-3-methyl-3-azabicyclo[3.2.1]octan-8-ol]	69.8	118	1060
CN1CC(O)(c2ccc(-c3ccnc4[nH]cc(F)c34)cc2Cl)C1 [Compound 137, 3-(2-chloro-4-(3-fluoro-1H-pyrrolo[2,3-b]pyridin-4-yl)phenyl)-1-methylazetidin-3-ol]	108	350	1180
OC1(c2c(F)cc(-c3ccnc4[nH]cc(F)c34)cc2F)CC2(CN(C3COC3)C2)C1 [Compound 138, 6-(2,6-difluoro-4-(3-fluoro-1H-pyrrolo[2,3-b]pyridin-4-yl)phenyl)-2-(oxetan-3-yl)-2-azaspiro[3.3]heptan-6-ol]	66.4	117	2710
O=S1(=O)CCC(N2CC3(C2)CC(O)(c2c(F)cc(-c4ccnc5[nH]cc(F)c45)cc2F)C3)CC1 [Compound 140, 4-(6-(2,6-difluoro-4-(3-fluoro-1H-pyrrolo[2,3-b]pyridin-4-yl)phenyl)-6-hydroxy-2-azaspiro[3.3]heptan-2-yl)tetrahydro-2H-thiopyran 1,1-dioxide]	56.8	120	1580
CC(C)(C)OC(=O)N1CCC(O)(c2ccc(-c3ccnc4[nH]ccc34)cc2)CC1 [Compound 141, tert-butyl 4-(4-(1H-pyrrolo[2,3-b]pyridin-4-yl)phenyl)-4-hydroxypiperidine-1-carboxylate]	897	465	> 10000
O=C([C@@H]1CCCN1)N1CC(O)(c2ccc(-c3ccnc4[nH]cc(F)c34)cc2Cl)C1 [Compound 144, (S)-4-(3-chloro-4-(3-hydroxy-1-prolylazetidin-3-yl)phenyl)-3-fluoro-1H-pyrrolo[2,3-b]pyridine]	50	26	2770
NCC(=O)N1CC2(C1)CC(O)(c1c(F)cc(-c3ccnc4[nH]cc(F)c34)cc1F)C2 [Compound 145, 2-amino-1-(6-(2,6-difluoro-4-(3-fluoro-1H-pyrrolo[2,3-b]pyridin-4-yl)phenyl)-6-hydroxy-2-azaspiro[3.3]heptan-2-yl)ethan-1-one]	28.3	46	1870
c1cc(-c2ccc(C3CC4CCCC(C3)N4)cc2)c2cc[nH]c2n1 (stereo not drawn) [Compound 146, 4-(4-(9-azabicyclo[3.3.1]nonan-3-yl)phenyl)-1H-pyrrolo[2,3-b]pyridine]	203	94.8	2460
NC(=O)c1ccc(-c2cc(-c3ccnc4[nH]ccc34)ccc2C2CCNCC2)cc1 [Compound 150, 2′-(piperidin-4-yl)-5′-(1H-pyrrolo[2,3-b]pyridin-4-yl)-[1,1′-biphenyl]-4-carboxamide]	32.9	25.9	967
COC(=O)c1c[nH]c2nccc(-c3ccc(C4CCNCC4)c(-c4ccc(CN)cc4)c3)c12 [Compound 152, methyl 4-(4′-(aminomethyl)-6-(piperidin-4-yl)-[1,1′-biphenyl]-3-yl)-1H-pyrrolo[2,3-b]pyridine-3-carboxylate]	66.3	50.2	4410

More lines, in order of falling IC50 [1], values ahead:

IC50 [1] [nM]	IC50 [2] [nM]	IC50 [3] [nM]	Compound
28	25	1070	CN1CCC(O)(c2ccc(-c3ccnc4[nH]cc(F)c34)cc2)CC1 [Compound 131, 4-(4-(3-fluoro-1H-pyrrolo[2,3-b]pyridin-4-yl)phenyl)-1-methylpiperidin-4-ol]
26	12	1460	O=C([C@@H]1CCCN1)N1CCC(O)(c2ccc(-c3ccnc4[nH]cc(F)c34)cc2)CC1 [Compound 143, (S)-3-fluoro-4-(4-(4-hydroxy-1-prolylpiperidin-4-yl)phenyl)-1H-pyrrolo[2,3-b]pyridine]
20.1	19.1	390	CN1[C@@H]2CC[C@H]1CC(O)(c1ccc(-c3ccnc4[nH]cc(F)c34)cc1)C2 (stereo partly drawn) [Compound 133, (1R,5S)-3-(4-(3-fluoro-1H-pyrrolo[2,3-b]pyridin-4-yl)phenyl)-8-methyl-8-azabicyclo[3.2.1]octan-3-ol]
16.6	15.1	170	NCc1ccc(-c2cc(-c3ccnc4[nH]cc(Br)c34)ccc2C2CCNCC2)cc1 [Compound 151, (5′-(3-bromo-1H-pyrrolo[2,3-b]pyridin-4-yl)-2′-(piperidin-4-yl)-[1,1′-biphenyl]-4-yl)methanamine]
15.2	20.4	378	c1ccc(-c2cc(-c3ccnc4[nH]ccc34)ccc2C2CCNCC2)cc1 [Compound 153, 4-(6-(piperidin-4-yl)-[1,1′-biphenyl]-3-yl)-1H-pyrrolo[2,3-b]pyridine]
7.7	17.8	1080	NCC(=O)N1CCC(c2ccc(-c3ccnc4[nH]cc(F)c34)cc2Cl)CC1 [Compound 148, 2-amino-1-(4-(2-chloro-4-(3-fluoro-1H-pyrrolo[2,3-b]pyridin-4-yl)phenyl)piperidin-1-yl)ethan-1-one]
4.3	1	67.3	NCc1ccc(-c2cc(-c3ccnc4[nH]cc(F)c34)ccc2C2CCNCC2)cc1 [Compound 149, (5′-(3-fluoro-1H-pyrrolo[2,3-b]pyridin-4-yl)-2′-(piperidin-4-yl)-[1,1′-biphenyl]-4-yl)methanamine]
2.9	5.7	490	CN1CCC(O)(c2ccc(-c3ccnc4[nH]ccc34)cc2)CC1 [Compound 132, 4-(4-(1H-pyrrolo[2,3-b]pyridin-4-yl)phenyl)-1-methylpiperidin-4-ol]
